Assay results as given in EP4755892A1, “KINESIN KIF18A INHIBITOR AND USE THEREOF” (Shanghai Apeiron Therapeutics Company Limited, priority 2023, dated 2025).
Where two headings read alike, the source gives them in different places.

What was measured:
[1] = biological target: T1, Human KIF18A (amino acid sequence 1-417) (Homo sapiens, UniProt Q8NI77); assay: Enzymatic Activity Test (ADP-Glo, microtubule-stimulated KIF18A ATPase); assay type: biochemical; conditions: 60 µg/mL microtubules, 25 µM ATP, 2.5 nM KIF18A protein, 120 min at ambient temperature, chemiluminescence; read-out: KIF 18A IC50
T1 construct: purchased Viva Biotech (Shanghai) Ltd
T1 sequence (Q8NI77 1-417): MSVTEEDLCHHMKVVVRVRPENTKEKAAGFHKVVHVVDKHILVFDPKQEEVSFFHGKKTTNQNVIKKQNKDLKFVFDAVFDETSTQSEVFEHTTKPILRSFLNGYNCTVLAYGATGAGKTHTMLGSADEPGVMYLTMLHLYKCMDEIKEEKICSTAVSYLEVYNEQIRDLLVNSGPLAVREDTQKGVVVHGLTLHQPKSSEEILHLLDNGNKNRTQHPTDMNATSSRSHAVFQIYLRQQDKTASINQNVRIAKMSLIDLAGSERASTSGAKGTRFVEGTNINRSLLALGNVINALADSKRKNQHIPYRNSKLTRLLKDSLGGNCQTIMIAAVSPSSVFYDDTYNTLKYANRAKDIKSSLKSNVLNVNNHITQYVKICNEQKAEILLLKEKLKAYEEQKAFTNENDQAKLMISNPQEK
Procedure: Assay 1: Enzymatic Activity Test
Materials: Human KIF18A (amino acid sequence 1-417) was purchased from Viva Biotech (Shanghai) Ltd.; the ADP-Glo™ protein kinase kit was acquired from Promega, USA; tubulin was sourced from Cytoskeleton, USA; and the 384-well assay plate and Envision multifunctional microplate reader were obtained from PerkinElmer, USA.
Enzymatic Activity Test: The compound powder was dissolved in DMSO to prepare a stock solution of 10 mM. Then gradient dilution was performed for the compounds in the microplate to achieve a final concentration of 0-10 µM. Then, 2.5 µL each of tubulin, compound, ATP, and KIF18A protein were added to the microplate in sequence for reaction at ambient temperature for 120 min. The final concentrations in the enzyme reaction were 60 µg/mL for microtubules, 25 µM for ATP, and 2.5 nM for KIF18A protein. After the enzyme reaction, 10 µL of ADP-GLO reaction reagent was added to each well and incubated at room temperature for 30 min. After that, 20 µL of detection reagent was added to each well and incubated at room temperature for 30 min in the dark. Finally, chemiluminescence detection was performed using the PerkinElmer Envision.

OVCAR3 cells = assay: Cell Proliferation Activity Test (CyQUANT Direct), OVCAR3; assay type: cell-based; conditions: compound 0-10 µM, 3 days, 0.2% DMSO, CyQUANT fluorescence, read-out: OVCAR-3 _IC50_nM
Procedure: Assay 2: Cell Proliferation Activity Test
Materials and Cells: OVCAR3 cells were purchased from Nanjing Cobioer Biosciences Co., Ltd. RPMI-1640 medium, fetal bovine serum, and the CyQUANT Direct Cell Proliferation Assay kit were purchased from Thermo Fisher Scientific, USA; 96-well cell culture plates were sourced from Coming, USA.
Cell Culture: OVCAR3 cells were cultured with RPMI-1640 medium containing 10% fetal bovine serum and incubated in a 5% CO2 incubator at 37°C. Only cells in the logarithmic growth phase could be used for the test.
Cell Proliferation Activity Test:
OVCAR3 cells were inoculated into a 96-well cell culture plate at 90 µL per well and incubated overnight in a 5% CO2 incubator at 37°C. The compound powder was dissolved in DMSO to prepare a stock solution of 10 mM. Then gradient dilution was performed for the compounds in the microplate to achieve a final concentration of 0-10 µM. 10 µL of cell culture medium containing compounds was added to each well to make the final DMSO content 0.2%. The cell plates were incubated in a 5% CO2 incubator at 37°C for 3 days. 100 µL of CyQUANT detection reagent was added to each well, reacted at 37°C for 60 min, and fluorescence detection was performed using the PerkinElmer Envision.

HT29 cells = assay: CyQuant Cell Proliferation Activity Test, HT29; assay type: cell-based; conditions: HT29 cells 2000 per well, initial concentration 3000 nM, 3-fold dilution, 3 days, 0.2% DMSO, read-out: HT29_IC50 _nM
Procedure: Assay 3: CyQuant Cell Proliferation Activity Test
Materials and Cells: HT29 cells were purchased from Nanjing Cobioer Biosciences Co., Ltd.; RPMI-1640 medium, fetal bovine serum, Trypsin-EDTA (0.25%), 96-well plates, and CyQuant reagents were purchased from ThermoFisher (USA); DMSO was purchased from SIGMA (USA).
Cell Culture: HT29 cells were cultured with RPMI-1640 containing 10% fetal bovine serum under the condition of 37°C and 5% CO2. Only cells in the logarithmic growth phase could be used for the test.
Cell Proliferation Activity Test: CyQuant reagent was used to detect the proliferation inhibitory activity of compounds on HT29 cells. The cell density was adjusted, and 100 µL per well was inoculated into a 96-well plate (HT29 at 2000 cells per well), then incubated overnight at 37°C and 5% CO2. Add compounds of various target concentrations (initial concentration of 3000 nM, 3-fold dilution, 9 concentration gradients), and make the DMSO content 0.2%. The cell plate was incubated at 37°C in 5% CO2 for 3 days. CyQuant reagent was added and incubated for 1 h. The plates were read by Envision, and IC50 was calculated using XLFIT.

SMILES | IC50 [1] | IC50 (OVCAR3 cells; Homo sapiens, OVCAR-3, 72 h) | IC50 (HT29 cells; Homo sapiens, HT-29, 72 h) | IC50 (OVCAR3 cells) | IC50 (HT29 cells)
Cc1cc2nc(n1)N1CCCC(C=CC3CCN(CC3)c3cc(NS(=O)(=O)CCO)ccc3C(=O)N2)C1 (stereo not drawn) [Example 4, 2-Hydroxy-N-(1^1-methyl-7-oxo-8-aza-1(2,4)-pyrimidin-2(1,3),5(4,1)-dipiperidin-6 (1,2)-benzeneheterocyclooct-3-en-6^5-yl)ethane-1-sulfonamide] | 736 nM | 1660 nM | > 3000 nM | – | –
Cc1cc2nc(n1)N1CCCC(CCC3CCN(CC3)c3cc(NS(=O)(=O)CCO)ccc3C(=O)N2)C1 (stereo not drawn) [Example 5, 2-Hydroxy-N-(1^1-methyl-7-oxo-8-aza-1(2,4)-pyrimidin-2(1,3),5(4,1)-dipiperidin-6 (1,2)-benzeneheterocyclooct-6^5-yl)ethane-1-sulfonamide] | 38 nM | 122 nM | 132 nM | – | –
Cc1cc2nc(n1)N1CCCC(C=CCCC3CCN(CC3)c3cc(NS(=O)(=O)CCO)ccc3C(=O)N2)C1 (stereo not drawn) [Example 6, 2-Hydroxy-N-(2^1-methyl-4-oxo-3-aza-2(2,4)-pyrimidin-1(1,3),6(1,4)-dipiperidin-5 (1,2)-benzenecyclodec-9-en-5^4-yl)ethane-1-sulfonamide] | 89 nM | 52 nM | 64 nM | – | –
Cc1cc2nc(n1)N1CCCC(CCCCC3CCN(CC3)c3cc(NS(=O)(=O)CCO)ccc3C(=O)N2)C1 (stereo not drawn) [Example 7, 2-Hydroxy-N-(2^6-methyl-4-oxo-3-aza-2(2,4)-pyrimidin-1(1,3),6(1,4)-dipiperidin-5 (1,2)-benzenecyclodecane-5^4-yl)ethane-1-sulfonamide] | 197 nM | 242 nM | 255 nM | – | –
Cc1cc2nc(n1)N1CCCC(C=CCC3CCCN(C3)c3cc(NS(=O)(=O)CCO)ccc3C(=O)N2)C1 (stereo not drawn) [Example 10, 2-Hydroxy-N-(2^6-methyl-4-oxo-3-aza-2(2,4)-pyrimidin-1,6(1,3)-dipiperidin-5(1,2) -benzeneheterocyclononane-8-en-5^4-yl)ethane-1-sulfonamide] | 200 nM | 136 nM | 172 nM | – | –
O=C1Nc2cccc(c2)S(=O)(=O)NCC=CCCC2CCN(CC2)c2cc(NS(=O)(=O)CCO)ccc21 [Example 12, N-(6,6-dioxo-3-oxo-6-thia-4,7-diaza-1(1,4)-piperidin-2(1,2),5(1,3)-diphenylheterocyclododec-9-ene-2^5-yl)-2-hydroxy-1-ethanesulfonamide] | 28 nM | 124 nM | 251 nM | – | –
O=C1Nc2cccc(c2)S(=O)(=O)NCCCCCC2CCN(CC2)c2cc(NS(=O)(=O)CCO)ccc21 [Example 13, N-(6,6-dioxo-3-oxo-6-thia-4,7-diaza-1(1,4)-piperidin-2(1,2),5(1,3)-diphenylheterocyclododecane-2^5-yl)-2-hydroxy-1-ethanesulfonamide] | 23 nM | 77 nM | 136 nM | – | –
O=C1Nc2cccc(c2)S(=O)(=O)NCCCCC2CCN(CC2)c2cc(NS(=O)(=O)CCO)ccc21 [Example 14, N-(6,6-dioxo-3-oxo-6-thia-1(1,4)-piperidin-2(1,2),5(1,3)-diphenylheterocycloundecane-2^5-yl)-2-hydroxy-1-ethanesulfonamide] | 21 nM | 85 nM | 152 nM | – | –
O=C1Nc2cccc(c2)S(=O)(=O)NCC=CC2CCN(CC2)c2cc(NS(=O)(=O)CCO)ccc21 [Example 15, (E)-N-(6,6-dioxo-3-oxo-6-thia-4,7-diaza-1(1,4)-piperidin-2(1,2),5(1,3)-diphenylheterocyclodec-9-en-2^5-yl)-2-hydroxy-1-ethanesulfonamide] | 275 nM | > 3000 nM | > 3000 nM | – | –
O=C1Nc2cccc(c2)S(=O)(=O)NCCCC2CCN(CC2)c2cc(NS(=O)(=O)CCO)ccc21 [Example 16, N-(6,6-dioxo-3-oxo-6-thia-4,7-diaza-1(1,4)-piperidin-2(1,2),5(1,3)-diphenylheterocyclodecane-2^5-yl)-2-hydroxy-1-ethanesulfonamide] | 588 nM | > 3000 nM | > 3000 nM | – | –
O=C1Nc2cccc(c2)S(=O)(=O)N2CCN(CCC3CCN(CC3)c3cc(NS(=O)(=O)CCO)ccc31)CC2 [Example 17, N-(6,6-dioxo-9-oxo-6-thia-8-aza-5(1,4)-piperazin-2(1,4)-piperidin-1(1,2),7(1,3)-diphenylheterocyclononane-1^3-yl)-2-hydroxyethane-1-sulfonamide] | 605 nM | > 3000 nM | > 3000 nM | – | –
Cc1cc2nc(n1)N1CCC(F)(F)C(C=CCC3CCN(CC3)c3cc(NS(=O)(=O)CCO)ccc3C(=O)N2)C1 (stereo not drawn) [Example 18, N-(1^4,1^4-difluoro-2^6-methyl-4-oxo-3-aza-2(2,4)-pyrimidin-1(1,3),6(1,4)-dipiperidin-5(1,2)-benzeneheterocyclonon-8-en-5^4-yl)-2-hydroxyethane-1-sulfonamide] | 94 nM | – | – | 31 nM | 34 nM
Cc1cc2nc(n1)N1CCC(F)(F)C(C=CCC3CCN(CC3)c3cc(NS(=O)(=O)CCO)ccc3C(=O)N2)C1 (stereo not drawn) [Example 18A, N-((1^3S,E)-1^4,1^4-difluoro-2^1-methyl-4-oxo-3-aza-2(2,4)-pyrimidin-1(1,3),6(1,4)-dipiperidin-5(1,2)-benzeneheterocyclononane-8-en-5^4-yl)-2-hydroxyethane-1-sulfonamide] | > 3000 nM | – | – | > 3000 nM | > 3000 nM
Cc1cc2nc(n1)N1CCC(F)(F)C(C=CCC3CCN(CC3)c3cc(NS(=O)(=O)CCO)ccc3C(=O)N2)C1 (stereo not drawn) [Example 18B, N-(1^3R,E)-1^4,1^4-difluoro-2^6-methyl-4-oxo-3-aza-2(2,4)-pyrimidin-1(1,3),6(1,4)-dip iperidin-5(1,2)-benzeneheterocyclononane-8-en-5^4-yl)-2-hydroxyethane-1-sulfonamide] | 46 nM | – | – | 12 nM | 16 nM
Cc1cc2nc(n1)N1CCC(F)(F)C(C=CCC3CCN(CC3)c3cc(NS(=O)(=O)CCO)ccc3C(=O)N2)C1 (stereo not drawn) [Example 18C, N-((1^3S,Z)-1^4,1^4-difluoro-2^6-methyl-4-oxo-3-aza-2(2,4)-pyrimidin-1(1,3),6(1,4)-dipiperidin-5(1,2)-benzeneheterocyclononane-8-en-5^4-yl)-2-hydroxyethane-1-sulfonamide] | 41 nM | – | – | 29 nM | 31 nM
